Assay results: patent US20170320848A1, “COMPOUNDS FOR USE IN ANTHELMINTHIC TREATMENT” (Bayer Animal Health GMBH, priority 2014, published 2017)
Like-named read-outs stand apart in the source and are kept apart here.

Legend:
[1] = test system: Cooperia curticei; assay: Cooperia curticei assay (COOPCU), larval mortality; format: cell-based; conditions: application rate 20 ppm, after 5 days; for mortality at 20 ppm: Cooperia curticei, 120 h, read-out: activity (percentage of larval mortality)
Method: Cooperia Curticei—Assay (COOPCU)
Solvent: dimethyl sulfoxide
To produce a suitable preparation, 10 mg of active compound are dissolved in 0.5 ml solvent, and the concentrate is diluted with “Ringer's solution” to the desired concentration.
Approximately 40 nematode larvae (Cooperia curticei) are transferred into a test tube containing the compound solution.
After 5 days percentage of larval mortality is recorded. 100% efficacy means all larvae are killed; 0% efficacy means no larvae are killed.

[2] = Measurement of LogP values by HPLC on reversed phase columns (EEC directive 79/831 Annex V.A8); format: physicochemical; conditions: for chromatographic logP: reversed phase HPLC columns
[3] = test system: Meloidogyne incognita; assay: Meloidogyne incognita assay (MELGIN), gall formation on salad seedlings; format: in vivo; conditions: application rate 20 ppm, after 14 days
Method: Meloidogyne Incognita—Assay (MELGIN)
Solvent: 125.0 parts by weight of acetone
To produce a suitable preparation, 1 part by weight of active compound is mixed with the stated amount of solvent, and the concentrate is diluted with water to the desired concentration.
Vessels are filled with sand, a solution of the active ingredient, a suspension containing eggs and larvae of the southern root-knot nematode (Meloidogyne incognita) and salad seeds. The salad seeds germinate and the seedlings grow. Galls develop in the roots.
After 14 days the nematicidal activity is determined on the basis of the percentage of gall formation. 100% means no galls were found and 0% means the number of galls found on the roots of the treated plants was equal to that in untreated control plants.

[4] = acidic range, 0.1% formic acid in water and acetonitrile as eluent, read-out: logP (HCOOH)[a]
[5] = acidic range, 0.1% formic acid in water and acetonitrile as eluent

SMILES | logP (HCOOH)[a] [2, 5] | nematicidal activity (percentage of gall formation) [3] [%] | also measured
COc1ccc(-c2ccc(C(F)(F)CNC(=O)c3ccccc3C(F)(F)F)c(F)c2)cc1 [Example 6] | – | – | mortality at 20 ppm [1]: 80%
CN(C)c1ccc(-c2ccc(C(F)(F)CNC(=O)c3ccccc3C(F)(F)F)c(C(F)(F)F)c2)cc1 [Example 10] | – | – | mortality at 20 ppm [1]: 80%
CN(C)c1ccc(-c2ccc(C(F)(F)CNC(=O)c3ccccc3C(F)(F)F)c(Cl)c2)cc1 [Example 28] | – | – | chromatographic logP [2, 4]: 4.28; mortality at 20 ppm [1]: 80%
CNc1ccc(-c2ccc(C(F)(F)CNC(=O)c3ccccc3C(F)(F)F)c(Cl)c2)cc1 [Example 29] | – | – | chromatographic logP [2, 4]: 3.59; mortality at 20 ppm [1]: 80%
O=C(NCC(F)(F)c1ccc(-c2cccc(C(F)F)c2)cc1Cl)c1ccccc1C(F)(F)F [Example 43] | 4.03 | 100 | –
O=C(NCC(F)(F)c1c(F)cc(-c2ccc(SC(F)(F)F)cc2)cc1F)c1ccccc1C(F)(F)F [Example 47] | 4.82 | 90 | –
Cc1cc(-c2ccc(C#N)cc2)ccc1C(F)(F)CNC(=O)c1ccccc1C(F)(F)F [Example 49] | 3.7 | 100 | –
Cc1cc(-c2ccc(SC(F)(F)F)cc2)ccc1C(F)(F)CNC(=O)c1ccccc1C(F)(F)F [Example 50] | 5.08 | 100 | –
COc1cc(-c2ccc(C#N)cc2)ccc1C(F)(F)CNC(=O)c1ccccc1C(F)(F)F [Example 51] | 3.43 | – | activity (percentage of larval mortality) [1]: 90%
O=C(NCC(F)(F)c1ccc(-c2ccc(F)cc2)cc1C(F)(F)F)c1nccnc1C(F)(F)F [Example 52] | – | 100 | –
O=C(NCC(F)(F)c1ccc(-c2ccc(Cl)cc2)cc1C(F)(F)F)c1nccnc1C(F)(F)F [Example 53] | – | 100 | –
O=C(NCC(F)(F)c1ccc(-c2ccc(F)cc2)cc1Cl)c1c(F)cccc1F [Example 60] | 3.85 | 100 | –
O=C(NCC(F)(F)c1ccc(-c2ccc(F)cc2)cc1Cl)c1nccnc1C(F)(F)F [Example 61] | 3.85 | 100 | –
O=C(NCC(F)(F)c1ccc(-c2ccc(F)cc2)cc1Cl)c1ncccc1C(F)(F)F [Example 62] | 4.05 | 100 | –
O=C(NCC(F)(F)c1ccc(-c2ccc(F)cc2)cc1Cl)c1cccnc1Cl [Example 63] | 3.46 | 100 | –
O=C(NCC(F)(F)c1ccc(-c2ccc(F)cc2)cc1Cl)c1cccnc1I [Example 64] | 3.56 | 100 | –
O=C(NCC(F)(F)c1ccc(-c2cccc(OC(F)F)c2)cc1Cl)c1ccccc1C(F)(F)F [Example 65] | 4.08 | 100 | –
O=C(NCC(F)(F)c1ccc(-c2ccc(OC(F)F)cc2)cc1Cl)c1ccccc1C(F)(F)F [Example 68] | 4.03 | 100 | –
O=C(NCC(F)(F)c1ccc(-c2cccc(Cl)c2)cc1Cl)c1ccccc1C(F)(F)F [Example 69] | 4.6 | 100 | –
O=C(NCC(F)(F)c1ccc(-c2ccc(Cl)c(Cl)c2)cc1Cl)c1ccccc1C(F)(F)F [Example 70] | 4.93 | 90 | –
N#Cc1cc(-c2ccc(F)cc2)ccc1C(F)(F)CNC(=O)c1ccccc1C(F)(F)F [Example 74] | 3.63 | – | activity (percentage of larval mortality) [1]: 90%
O=C(NCC(F)(F)c1ccc(-c2ccc(N3CCCC3)cc2)cc1Cl)c1ccccc1C(F)(F)F [Example 78] | 5.08 | – | activity (percentage of larval mortality) [1]: 90%

SMILES | logP (HCOOH)[a] [2, 5] | nematicidal activity (percentage of gall formation) [3] [%] | also measured
N#Cc1cc(-c2cccc(C(F)F)c2)ccc1C(F)(F)CNC(=O)c1ccccc1C(F)(F)F [Example 79] | 3.59 | – | activity (percentage of larval mortality) [1]: 80%
COc1cc(-c2ccc(C(F)(F)F)cc2)ccc1C(F)(F)CNC(=O)c1ccccc1C(F)(F)F [Example 87] | 4.33 | – | activity (percentage of larval mortality) [1]: 90%
Cc1cc(-c2ccc(C(F)(F)F)cc2)ccc1C(F)(F)CNC(=O)c1ccccc1C(F)(F)F [Example 88] | 4.62 | – | –
N#Cc1cc(-c2ccc(C(F)F)cc2)ccc1C(F)(F)CNC(=O)c1ccccc1C(F)(F)F [Example 89] | 3.59 | – | –
Cc1cc(-c2cccc(C(F)F)c2)ccc1C(F)(F)CNC(=O)c1ccccc1C(F)(F)F [Example 90] | 4.07 | – | –
COc1cc(-c2ccc(C(F)F)cc2)ccc1C(F)(F)CNC(=O)c1ccccc1C(F)(F)F [Example 91] | 3.81 | – | activity (percentage of larval mortality) [1]: 80%
COc1cc(-c2cccc(C(F)F)c2)ccc1C(F)(F)CNC(=O)c1ccccc1C(F)(F)F [Example 92] | 3.81 | – | –
N#Cc1ccc(-c2ccc(C(F)(F)CNC(=O)c3ccccc3C(F)(F)F)c(Cl)c2)c(F)c1 [Example 93] | 3.76 | – | –
O=C(NCC(F)(F)c1ccc(-c2ccc(F)c(Cl)c2)cc1Cl)c1ccccc1C(F)(F)F [Example 94] | 4.57 | 100 | –
N#Cc1cc(-c2ccc(C(F)(F)CNC(=O)c3ccccc3C(F)(F)F)c(Cl)c2)ccc1F [Example 96] | 3.81 | – | –
O=C(NCC(F)(F)c1ccc(-c2cc(F)cc(F)c2)cc1F)c1ccccc1C(F)(F)F [Example 101] | – | 100 | –
CC(=O)N1CCN(c2ccc(-c3ccc(C(F)(F)CNC(=O)c4ccccc4C(F)(F)F)c(Cl)c3)cc2)CC1 [Example 104] | 3.17 | – | –
O=C(NCC(F)(F)c1ccc(-c2ccc(OC(F)(F)F)c(F)c2)cc1Cl)c1ccccc1C(F)(F)F [Example 106] | 4.8 | – | –
N#Cc1cc(-c2cc(F)c(F)c(F)c2)ccc1C(F)(F)CNC(=O)c1ccccc1C(F)(F)F [Example 107] | 3.89 | – | –
O=C(NCC(F)(F)c1ccc(-c2cc(F)c(Cl)c(F)c2)cc1Cl)c1ccccc1C(F)(F)F [Example 110] | 4.77 | – | –
O=C(NCC(F)(F)c1ccc(-c2cc(F)c(F)c(F)c2)cc1Cl)c1nccnc1C(F)(F)F [Example 111] | 4.05 | – | –
O=C(NCC(F)(F)c1ccc(-c2ccc(N3CCOCC3)c(F)c2)cc1Cl)c1ccccc1C(F)(F)F [Example 113] | 4.05 | – | –
O=C(NCC(F)(F)c1ccc(-c2cc(F)c(F)c(F)c2)cc1Cl)c1ccccc1I [Example 114] | 4.34 | – | –
O=C(NCC(F)(F)c1ccc(-c2cc(F)c(F)c(F)c2)cc1Cl)c1ccccc1Br [Example 116] | 4.28 | – | –
COc1cc(-c2cc(F)c(F)c(F)c2)ccc1C(F)(F)CNC(=O)c1ccccc1C(F)(F)F [Example 118] | 4.23 | – | –
Cc1cc(-c2cc(Cl)c(F)c(Cl)c2)ccc1C(F)(F)CNC(=O)c1ccccc1C(F)(F)F [Example 128] | 5.08 | – | –
NCC(F)(F)c1ccc(-c2ccc(F)cc2)cc1Cl [Example VII-1, 2-[2-chloro-4-(4-fluorophenyl)phenyl]-2,2-difluoro-ethanamine] | – | – | chromatographic logP [2, 4]: 1.35; chromatographic logP ([2]; neutral range, 0.001 molar ammonium acetate solution in water and acetonitrile as eluent, read-out: LogP[b]): 3.1
